Our source for the IC50 and viability, T/C values is PubChem BioAssay AID1918937 (Molecular Pharmacology Branch, DTP, NCI, 2023).

In the assay the test system is 521955-158-R2-J5-PDC complex spheroid viability. Briefly: Anticancer human tumor 521955-158-R2-J5-PDC patient-derived pancreatic carcinoma cell line growth inhibition. To be noted: for viability, T/C: stronger effect = lower value. The gist of the method: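 Drug combinations with the LSD1 inhibitor iadademstat tested on tumor cells co-cultured as spheroids with endothelial cells and mesenchymal stem cells. Concentrations descended in half-log increments from clinical Cmax or 10 microM.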

Where [1] appears, read: curve of first compound, second compound 0.1 µM.
Setting [2] is: curve of first compound, second compound 0.316 µM.
Setting [3] is: curve of first compound, second compound 1 µM.
The mark [4] stands for this setting: curve of first compound, second compound 3.16 µM.
Where [5] appears, read: curve of first compound, second compound 10 µM.
Setting [6] is: second compound 0.1 µM, first compound 0.00316 µM.
The mark [7] stands for this setting: second compound 0.1 µM, first compound 0.01 µM.
The mark [8] stands for this setting: second compound 0.1 µM, first compound 0.0316 µM.
Where [9] appears, read: second compound 0.1 µM, first compound 0.1 µM.
Where [10] appears, read: second compound 0.1 µM, first compound 0.316 µM.
The mark [11] stands for this setting: second compound 0.1 µM, first compound 1 µM.
[12] abbreviates: second compound 0.316 µM, first compound 0.00316 µM.
[13] abbreviates: second compound 0.316 µM, first compound 0.01 µM.
Where [14] appears, read: second compound 0.316 µM, first compound 0.0316 µM.
Setting [15] is: second compound 0.316 µM, first compound 0.1 µM.
Where [16] appears, read: second compound 0.316 µM, first compound 0.316 µM.
[17] abbreviates: second compound 0.316 µM, first compound 1 µM.
The mark [18] stands for this setting: second compound 1 µM, first compound 0.00316 µM.
Setting [19] is: second compound 1 µM, first compound 0.01 µM.
[20] abbreviates: second compound 1 µM, first compound 0.0316 µM.
[21] abbreviates: second compound 1 µM, first compound 0.1 µM.
Setting [22] is: second compound 1 µM, first compound 0.316 µM.
Where [23] appears, read: second compound 1 µM, first compound 1 µM.
The mark [24] stands for this setting: second compound 3.16 µM, first compound 0.00316 µM.
[25] abbreviates: second compound 3.16 µM, first compound 0.01 µM.
Setting [26] is: second compound 3.16 µM, first compound 0.0316 µM.
The mark [27] stands for this setting: second compound 3.16 µM, first compound 0.1 µM.
[28] abbreviates: second compound 3.16 µM, first compound 0.316 µM.
The mark [29] stands for this setting: second compound 3.16 µM, first compound 1 µM.
Setting [30] is: second compound 10 µM, first compound 0.00316 µM.
Where [31] appears, read: second compound 10 µM, first compound 0.01 µM.
The mark [32] stands for this setting: second compound 10 µM, first compound 0.0316 µM.
Where [33] appears, read: second compound 10 µM, first compound 0.1 µM.
The mark [34] stands for this setting: second compound 10 µM, first compound 0.316 µM.
Where [35] appears, read: second compound 10 µM, first compound 1 µM.

SMILES strings stand for the structures. Values joined by “and” are separate entries in the source; they are usually repeats but may differ in a detail not shown here. Equal entries are not always repeated.
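Note: spheroids exposed to agents for seven days.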
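Throughout, for viability, T/C: percent of DMSO vehicle control luminescence viability.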

The IC50 is the concentration that gives 50% inhibition. The viability, T/C is the ratio of treated to control. As to `Nc1ncn(C2CC(O)C(CO)O2)c(=O)n1` (stereo not drawn) + NC1CC1c1ccc(-c2cccc(O)c2)cc1, the IC50 is, setting by setting: under setting [1], over 1000 nM; under setting [2], over 1000 nM; under setting [3], over 1000 nM; under setting [4], over 1000 nM; under setting [5], over 1000 nM. For the same compound, the viability, T/C was 89.9% under setting [6]; 81.6% under setting [7]; 83.7% under setting [8]; 76.3% under setting [9]; 58.7% under setting [10]; 52.4% under setting [11]. Besides, the viability, T/C reads like this: under setting [12], 78.3%; under setting [13], 89.6%; under setting [14], 101%; under setting [15], 73.4%; under setting [16], 65.5%; under setting [17], 53.1%. Besides, the viability, T/C by setting is: under setting [18], 84.1%; under setting [19], 91.2%; under setting [20], 86.6%; under setting [21], 76.9%; under setting [22], 68.8%; under setting [23], 59.8%. Further, the viability, T/C under setting [24] is 80.9%; the viability, T/C under setting [25] was 83.9%; the viability, T/C under setting [26] was 82.2%; the viability, T/C under setting [27] was 79%; the viability, T/C under setting [28] was 76%; the viability, T/C under setting [29] was 65.1%. Besides, the viability, T/C was 87.7% under setting [30]; 94% under setting [31]; 95.9% under setting [32]; 80.7% under setting [33]; 75.5% under setting [34]; 67.4% under setting [35].

As to `Nc1ncn(C2CC(O)C(CO)O2)c(=O)n1` (stereo not drawn) + NC1CCC(NC2CC2c2ccccc2)CC1, the IC50 under setting [1] is over 1000 nM; the IC50 under setting [2] was over 1000 nM; the IC50 under setting [3] is over 1000 nM; the IC50 under setting [4] was 941 nM; the IC50 under setting [5] is over 1000 nM. Further, the viability, T/C is, setting by setting: under setting [6], 101%; under setting [7], 108%; under setting [8], 93.6%; under setting [9], 79.7%; under setting [10], 69.6%; under setting [11], 64.2%. Further, the viability, T/C runs as follows: under setting [12], 97.4%; under setting [13], 96%; under setting [14], 85.6%; under setting [15], 83.4%; under setting [16], 63%; under setting [17], 55.3%. Moreover, the viability, T/C is 99.3% under setting [18]; 90.1% under setting [19]; 85.3% under setting [20]; 74.4% under setting [21]; 60.5% under setting [22]; 56.3% under setting [23]. The viability, T/C was 96.4% under setting [24]; 95.4% under setting [25]; 93.1% under setting [26]; 75.4% under setting [27]; 59.1% under setting [28]; 49% under setting [29]. The viability, T/C was 95.3% under setting [30]; 91% under setting [31]; 92.8% under setting [32]; 76.5% under setting [33]; 62.5% under setting [34]; 51.6% under setting [35].

With `COc1cc(Nc2ncc3c(n2)-c2ccc(Cl)cc2C(c2c(F)cccc2OC)=NC3)ccc1C(=O)O` + NC1CCC(NC2CC2c2ccccc2)CC1, the IC50 by setting is: under setting [1], 5.87 nM; under setting [2], 34 nM; under setting [3], 74.5 nM; under setting [4], 15.2 nM; under setting [5], 42.1 nM. Further, the viability, T/C by setting is: under setting [6], 49.1%; under setting [7], 54.5%; under setting [8], 45.8%; under setting [9], 41.7%; under setting [10], 44.8%; under setting [11], 46.7%. Also, the viability, T/C runs as follows: under setting [12], 54.4%; under setting [13], 56.7%; under setting [14], 50.3%; under setting [15], 45%; under setting [16], 45.2%; under setting [17], 46.2%. Moreover, the viability, T/C runs as follows: under setting [18], 45.7%; under setting [19], 54.1%; under setting [20], 51.5%; under setting [21], 49.8%; under setting [22], 41.8%; under setting [23], 38%. Also, the viability, T/C was 55.2% under setting [24]; 50.2% under setting [25]; 50.1% under setting [26]; 44.9% under setting [27]; 39.1% under setting [28]; 41.8% under setting [29]. Besides, the viability, T/C is, setting by setting: under setting [30], 48.8%; under setting [31], 53.9%; under setting [32], 50.5%; under setting [33], 46.9%; under setting [34], 36.2%; under setting [35], 36.7%.

On to `Nc1ccccc1NC(=O)c1ccc(CNC(=O)OCc2cccnc2)cc1`, for which the viability, T/C was 105% and 117% (compound 0.00949 µM); 102% and 112% (compound 0.03 µM); 83.6% and 104% (compound 0.0949 µM); 56.4% and 70.6% (compound 0.3 µM); 11.1% and 25.3% (compound 0.949 µM); 0.41% and 0.46% (compound 3 µM). Besides, the IC50 (curve of compound) was 324 nM and 508 nM.

Turning to `CCc1c2c(nc3ccc(O)cc13)-c1cc3c(c(=O)n1C2)COC(=O)[C@]3(O)CC`, the viability, T/C is 4.87% and 6% (compound 0.000949 µM); 3.58% and 4.94% (compound 0.003 µM); 1.12% and 1.08% (compound 0.00949 µM); 0.53% and 1.39% (compound 0.03 µM); 0.45% and 1.25% (compound 0.0949 µM); 0.6% and 1.68% (compound 0.3 µM). The IC50 (curve of compound) is under 0.949 nM.

On to `O=C(C=Cn1cnc(-c2cc(C(F)(F)F)cc(C(F)(F)F)c2)n1)NNc1cnccn1` + NC1CC1c1ccc(-c2cccc(O)c2)cc1, for which the IC50 under setting [1] came to 219 nM; the IC50 under setting [2] amounted to 205 nM; the IC50 under setting [3] was determined as 168 nM; the IC50 under setting [4] came to 75 nM; the IC50 under setting [5] is 17.8 nM. Besides, the viability, T/C runs as follows: under setting [6], 81.3%; under setting [7], 75%; under setting [8], 85.6%; under setting [9], 65.6%; under setting [10], 42.5%; under setting [11], 23.1%. The viability, T/C by setting is: under setting [12], 69.8%; under setting [13], 79.1%; under setting [14], 78.5%; under setting [15], 78%; under setting [16], 34.2%; under setting [17], 22.7%. In addition, the viability, T/C runs as follows: under setting [18], 65.1%; under setting [19], 66.5%; under setting [20], 79.3%; under setting [21], 53.6%; under setting [22], 40.5%; under setting [23], 19.4%. Moreover, the viability, T/C runs as follows: under setting [24], 67.2%; under setting [25], 61.2%; under setting [26], 52.2%; under setting [27], 50.4%; under setting [28], 36.9%; under setting [29], 17.5%. Also, the viability, T/C is, setting by setting: under setting [30], 56.6%; under setting [31], 56.9%; under setting [32], 43.6%; under setting [33], 36.5%; under setting [34], 24.7%; under setting [35], 16.8%.

Regarding `Nc1ncn(C2CC(O)C(CO)O2)c(=O)n1` (stereo not drawn), the viability, T/C is 99.5% and 107% (compound 0.00316 µM); 103% and 102% (compound 0.01 µM); 96.7% and 96.2% (compound 0.0316 µM); 81.8% and 84.8% (compound 0.1 µM); 79% and 74.5% (compound 0.316 µM); 64.4% and 52.7% (compound 1 µM). For the same compound, the IC50 (curve of compound) was over 1000 nM.

On to `O=C(c1cc(Cc2n[nH]c(=O)c3ccccc23)ccc1F)N1CCN(C(=O)C2CC2)CC1`, for which the viability, T/C reads like this: (compound 0.0316 µM) 95.7% and 102%; (compound 0.1 µM) 103% and 100%; (compound 0.316 µM) 100% and 104%; (compound 1 µM) 100% and 97.1%; (compound 3.16 µM) 90.8% and 96.1%; (compound 10 µM) 55.5% and 78.5%. Also, for the setting “curve of compound”, the IC50 is over 10000 nM.
